We go through 1 compound from publication PMC2196289 (The Journal of Experimental Medicine, 1997).

The test has as its target T1, mouse LXA4R (lipoxin A4 receptor) (Mus musculus, UniProt O08790).
T1 sequence (O08790 1-351): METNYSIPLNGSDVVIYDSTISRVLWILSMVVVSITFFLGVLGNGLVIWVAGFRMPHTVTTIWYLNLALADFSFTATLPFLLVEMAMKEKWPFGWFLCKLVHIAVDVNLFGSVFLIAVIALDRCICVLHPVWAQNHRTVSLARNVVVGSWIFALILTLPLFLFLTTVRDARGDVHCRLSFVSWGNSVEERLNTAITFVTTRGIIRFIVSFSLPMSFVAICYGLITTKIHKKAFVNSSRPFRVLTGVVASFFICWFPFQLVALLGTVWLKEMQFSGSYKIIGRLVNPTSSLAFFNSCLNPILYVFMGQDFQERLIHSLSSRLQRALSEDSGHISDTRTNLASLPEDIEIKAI
Put plainly: [3H]LXA4 radioligand binding. The test is classed as cell-based.

In general, Kd refers to the concentration at which binding is half-saturated.

Compound `CCCCC[C@H](O)/C=C/C=C\C=C\C=C\[C@@H](O)[C@@H](O)CCCC(=O)O` [LXA4, 5(S),6(R),15(S)-trihydroxy7,9,13-trans-11-cis-eicosatetraenoic acid] yielded a Kd of 1.5 ± 0.6 nM.
